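Briefly, cells in 96-well plates were exposed to five compound concentrations for 48 h, and endpoints were estimated by linear interpolation. At the GI50, growth is halved.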 Activity calls are given as the source filed them. Rule as the data show it: active = GI50 up to about 1.1 µM and inactive = higher.
Key:
Experiment in all cases: growth of human tumour cells (NCI), 48 h
[1] = tested on: SR
[2] = tested on: SNB-19
[3] = tested on: SF-539
[4] = tested on: LXFL 529
[5] = tested on: NCI-H460
[6] = tested on: ACHN
[7] = tested on: U-251
[8] = tested on: NCI-H23
[9] = tested on: HCT-15
[10] = tested on: OVCAR-8
[11] = tested on: DMS-114
[12] = tested on: DLD-1
[13] = tested on: HOP-18
[14] = tested on: K562
[15] = tested on: HOP-92
[16] = tested on: XF498
[17] = tested on: OVCAR-3
[18] = tested on: SW-620
[19] = tested on: SN12C
[20] = tested on: OVCAR-4
[21] = tested on: Malme-3M
[22] = tested on: SNB-78
[23] = tested on: EKVX
[24] = tested on: SNB-75
[25] = tested on: HL-60
[26] = tested on: A498
[27] = tested on: UACC-62
[28] = tested on: A549
[29] = tested on: SK-MEL-2
[30] = tested on: COLO 205
[31] = tested on: UACC-257
[32] = tested on: HCT-116
[33] = tested on: LOX IMVI
[34] = tested on: M19-MEL
[35] = tested on: HT-29
[36] = tested on: 786-0
[37] = tested on: RXF 393
[38] = tested on: SK-MEL-28
[39] = tested on: SF-268
[40] = tested on: MOLT-4
[41] = tested on: NCI-H522
[42] = tested on: SK-MEL-5
[43] = tested on: DMS-273
[44] = tested on: HOP-62
[45] = tested on: KM12
[46] = tested on: SF-295
[47] = tested on: SK-OV-3
[48] = tested on: TK-10
[49] = tested on: CCRF-CEM
[50] = tested on: OVCAR-5
[51] = tested on: IGROV-1
[52] = tested on: CAKI-1
[53] = tested on: M14
[54] = tested on: UO-31
[55] = tested on: RPMI-8226
[56] = tested on: NCI-H226
[57] = tested on: HCC 2998
[58] = tested on: KM-20L2

O=C1NC2(CCCC2)/C(=N\O)C12CCCC2
GI50 [1]: > 100 µM (inactive) | GI50 [2]: > 100 µM (inactive) | GI50 [3]: > 100 µM (inactive) | GI50 [4]: > 100 µM (inactive) | GI50 [5]: > 100 µM (inactive) | GI50 [6]: > 100 µM (inactive) | GI50 [7]: > 100 µM (inactive) | GI50 [8]: > 100 µM (inactive) | GI50 [9]: > 100 µM | GI50 [10]: > 100 µM (inactive) | GI50 [11]: > 100 µM (inactive) | GI50 [12]: > 100 µM (inactive) | GI50 [13]: > 100 µM (inactive) | GI50 [14]: > 100 µM (inactive) | GI50 [15]: > 100 µM (inactive) | GI50 [16]: > 100 µM (inactive) | GI50 [17]: > 100 µM (inactive) | GI50 [18]: > 100 µM (inactive) | GI50 [19]: > 100 µM (inactive) | GI50 [20]: > 100 µM (inactive) | GI50 [21]: > 100 µM (inactive) | GI50 [22]: > 100 µM (inactive) | GI50 [23]: > 100 µM (inactive) | GI50 [24]: > 100 µM (inactive) | GI50 [25]: > 100 µM (inactive) | GI50 [26]: > 100 µM (inactive) | GI50 [27]: > 100 µM (inactive) | GI50 [28]: > 100 µM (inactive) | GI50 [29]: > 100 µM (inactive) | GI50 [30]: > 100 µM (inactive) | GI50 [31]: > 100 µM (inactive) | GI50 [32]: > 100 µM (inactive) | GI50 [33]: > 100 µM (inactive) | GI50 [34]: > 100 µM (inactive) | GI50 [35]: > 100 µM (inactive) | GI50 [36]: > 100 µM (inactive) | GI50 [37]: > 100 µM (inactive) | GI50 [38]: > 100 µM (inactive) | GI50 [39]: > 100 µM (inactive) | GI50 [40]: > 100 µM (inactive) | GI50 [41]: > 100 µM (inactive) | GI50 [42]: > 100 µM (inactive) | GI50 [43]: > 100 µM (inactive) | GI50 [44]: > 100 µM (inactive) | GI50 [45]: > 100 µM (inactive) | GI50 [46]: > 100 µM (inactive) | GI50 [47]: > 100 µM (inactive) | GI50 [48]: > 100 µM (inactive) | GI50 [49]: > 100 µM (inactive) | GI50 [50]: > 100 µM (inactive) | GI50 [51]: > 100 µM (inactive) | GI50 [52]: > 100 µM (inactive) | GI50 [53]: > 100 µM (inactive) | GI50 [54]: > 100 µM (inactive)

CCOC(=O)NC(=O)c1cn(CCCOC(=O)CCCCCCCCCCC(=O)OCCCn2cc(C(=O)NC(=O)OCC)c(=O)n(C)c2=O)c(=O)n(C)c1=O
GI50 [1]: > 100 µM (inactive) | GI50 [2]: > 100 µM (inactive) | GI50 [3]: > 100 µM (inactive) | GI50 [4]: > 100 µM (inactive) | GI50 [5]: > 100 µM (inactive) | GI50 [6]: > 100 µM (inactive) | GI50 [7]: > 100 µM (inactive) | GI50 [8]: > 100 µM (inactive) | GI50 [9]: > 100 µM | GI50 [10]: > 100 µM (inactive) | GI50 [11]: > 100 µM (inactive) | GI50 [12]: > 100 µM (inactive) | GI50 [13]: > 100 µM (inactive) | GI50 [14]: > 100 µM (inactive) | GI50 [15]: 67.8 µM (inactive) | GI50 [16]: > 100 µM (inactive) | GI50 [17]: > 100 µM (inactive) | GI50 [18]: > 100 µM (inactive) | GI50 [19]: > 100 µM (inactive) | GI50 [20]: > 100 µM (inactive) | GI50 [21]: > 100 µM (inactive) | GI50 [55]: > 100 µM (inactive) | GI50 [22]: > 100 µM (inactive) | GI50 [56]: > 100 µM (inactive) | GI50 [23]: > 100 µM (inactive) | GI50 [24]: 47.9 µM (inactive) | GI50 [25]: > 100 µM (inactive) | GI50 [57]: > 100 µM (inactive) | GI50 [26]: > 100 µM (inactive) | GI50 [27]: > 100 µM (inactive) | GI50 [28]: > 100 µM (inactive) | GI50 [29]: > 100 µM (inactive) | GI50 [30]: > 100 µM (inactive) | GI50 [31]: > 100 µM (inactive) | GI50 [32]: > 100 µM (inactive) | GI50 [33]: > 100 µM (inactive) | GI50 [34]: > 100 µM (inactive) | GI50 [35]: > 100 µM (inactive) | GI50 [36]: > 100 µM (inactive) | GI50 [37]: > 100 µM (inactive) | GI50 [38]: > 100 µM (inactive) | GI50 [39]: > 100 µM (inactive) | GI50 [40]: > 100 µM (inactive) | GI50 [41]: > 100 µM (inactive) | GI50 [42]: > 100 µM (inactive) | GI50 [43]: > 100 µM (inactive) | GI50 [44]: > 100 µM (inactive) | GI50 [45]: > 100 µM (inactive) | GI50 [46]: > 100 µM (inactive) | GI50 [47]: > 100 µM (inactive) | GI50 [48]: > 100 µM (inactive) | GI50 [49]: > 100 µM (inactive) | GI50 [50]: > 100 µM (inactive) | GI50 [51]: > 100 µM (inactive) | GI50 [52]: > 100 µM (inactive) | GI50 [53]: > 100 µM (inactive) | GI50 [54]: > 100 µM (inactive)

COc1cc(C2c3cc4c(cc3[C@H](NS(C)(=O)=O)C3COC(=O)[C@H]23)OCO4)cc(OC)c1OC (stereo not given in full)
GI50 [1]: 0.251 µM (active) | GI50 [3]: 0.165 µM (active) | GI50 [4]: 0.731 µM (active) | GI50 [5]: 0.615 µM (active) | GI50 [6]: 0.51 µM (active) | GI50 [7]: 0.327 µM (active) | GI50 [8]: 0.223 µM (active) | GI50 [9]: 0.448 µM | GI50 [10]: 0.439 µM (active) | GI50 [11]: 0.226 µM (active) | GI50 [12]: 0.592 µM (active) | GI50 [13]: > 100 µM (inactive) | GI50 [14]: 0.415 µM (active) | GI50 [16]: 0.56 µM (active) | GI50 [19]: 0.482 µM (active) | GI50 [21]: > 100 µM (inactive) | GI50 [55]: 0.394 µM (active) | GI50 [56]: 0.177 µM (active) | GI50 [25]: 0.253 µM (active) | GI50 [57]: 0.435 µM (active) | GI50 [27]: 0.162 µM (active) | GI50 [29]: > 100 µM (inactive) | GI50 [30]: 0.186 µM (active) | GI50 [31]: 0.612 µM (active) | GI50 [58]: 0.162 µM (active) | GI50 [33]: 0.419 µM (active) | GI50 [35]: 0.34 µM (active) | GI50 [36]: 0.471 µM (active) | GI50 [39]: 0.778 µM (active) | GI50 [40]: 0.418 µM (active) | GI50 [41]: 0.0671 µM (active) | GI50 [43]: 0.297 µM (active) | GI50 [44]: 0.177 µM (active) | GI50 [45]: 0.108 µM (active) | GI50 [48]: > 100 µM (inactive) | GI50 [49]: 0.444 µM (active) | GI50 [50]: > 100 µM (inactive) | GI50 [53]: 0.426 µM (active) | GI50 [54]: 9.35 µM (inactive)

Source: ChEMBL document CHEMBL1201862, “PubChem BioAssay data set” (2004)
